Laboratory results: patent publication US8110220B2, “Temperature sensitive polymers” (Universiteit Utrecht, priority 2005, dated 2012)

Test: Degradation kinetics (hydrolysis) of oligolactate monomers, HPLC
Format: physicochemical
Conditions: pH 7.4, 37° C.
Protocol: The degradation kinetic studies of HEMAm-oligolactates were conducted as described by Neradovic et al [Macromolecules; 2003; 36(20); 7491-7498]. In brief, a 10 mM solution of HEMAm-oligolactate in DMSO was diluted 10 times with 100 mM PBS (pH 7.4) in a glass vial and the pH was adjusted to pH 7.4 with 4 M HCl. The resulting solutions of HEMAm-monolactate, -dilactate, -trilactate and—tetralactate were incubated in a shaking water bath at 37° C. At regular time intervals samples of 300 μl were withdrawn and 700 μl of 1 M sodium acetate buffer (pH 3.8) was added to prevent further hydrolysis. The samples were stored at 4° C. prior to HPLC analysis. The hydrolysis of HEMAm-trilactate and—tetralactate was also investigated in an acetonitril-PBS pH7.2 mixture (50:50 w/w) of lower dielectric constant to slow down the hydrolysis rate. The HPLC analysis was carried out on a Waters system (Waters Associates Inc., Milford, Mass., USA). This consisted of a pump Model 600, an autoinjector Model 717, a variable wavelength absorbance detector Model 996 and an analytical reversed phase column LiChrosphere 100 RP-18 (5 μm, 125×4 mm i.d.) with an RP-18 guard column (4×4 mm) (Merck) was used. The injection volume was 50 μl and the detection wavelength was 254 nm. […] The chromatograms were analyzed with Empower Software Version 1154 (Waters Associates Inc.). […]

Structure (SMILES) | hydrolysis kinetics compared
C=C(C)C(=O)NCCOC(=O)C(C)OC(=O)C(C)OC(=O)C(C)OC(=O)C(C)O (centres unmarked) [HEMAm-Lac4, HEMAm-tetralactate] | even faster hydrolysis kinetics than HEMAm-Lac1-2
C=C(C)C(=O)NCCOC(=O)C(C)OC(=O)C(C)OC(=O)C(C)O (centres unmarked) [HEMAm-Lac3, HEMAm-trilactate] | even faster hydrolysis kinetics than HEMAm-Lac1-2
